Laboratory results published in the supplement of paper PMC4862054.

system: HCC1599; experiment: normalised response (% of control), CellTox Green; higher = less cell death (100 = DMSO, 0 = benzethonium chloride kill control); details: incubation time: 72 h
How it was run: (§1)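 A 20 µl suspension of breast cancer cells was seeded into each well of 384-well plates containing compound at 5 concentrations in 10-fold steps over a compound-specific 10,000-fold range. After 72 h incubation, CellTox Green fluorescence (485/520 nm) was read first, and CellTiter-Glo luminescence was read after 10 min at room temperature. Each plate was normalised against 0.1 % DMSO (100) and a positive kill control (0), and each value is the normalised signal at one concentration.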

Q: Which normalised response does the source give for `CO[C@H]1/C=C\C=C(/C)C(=O)NC2=CC(=O)C(NCCN(C)C)=C(C[C@@H](C)C[C@H](OC)[C@H](O)[C@@H](C)/C=C(\C)[C@@H]1OC(N)=O)C2=O` [Alvespimycin] (10 nM) here?
A: Its normalised response is 111%.

system: MDA-MB-436; experiment: as above; details: incubation time: 72 h
How it was run: as §1

Q: For `CC(C)Cn1cnc2c(N)nc3ccccc3c21` [Imiquimod] (25 nM), which normalised response is on record?
A: Its normalised response is 101%.

Q: `Cc1ccc(C(=O)N(CCCN)[C@@H](c2oc3cc(Cl)ccc3c(=O)c2Cc2ccccc2)C(C)C)cc1` (1 nM) was tested. Which normalised response did it give?
A: The normalised response was 108%.

Q: `Cc1ccc(C(=O)Nc2ccc(CN3CCN(C)CC3)c(C(F)(F)F)c2)cc1C#Cc1cnc2cccnn12` [Ponatinib] (10 nM) was tested. Which normalised response did it give?
A: The normalised response was 73.4%.

Q: Which normalised response does the source give for `COc1cc([C@@H]2c3cc4c(cc3[C@@H](O[C@@H]3O[C@@H]5CO[C@@H](C)O[C@H]5[C@H](O)[C@H]3O)[C@H]3COC(=O)[C@H]23)OCO4)cc(OC)c1O` [Etoposide] (100 nM) here?
A: The normalised response was 107%.

Q: With `COc1cc2ncnc(Nc3ccc(F)c(Cl)c3)c2cc1NC(=O)/C=C/CN1CCCCC1` [Dacomitinib] (10 nM) as the molecule, how does the normalised response read?
A: Its normalised response is 103%.

Q: `NC(=O)Nc1cc(-c2cccc(F)c2)sc1C(=O)N[C@H]1CCCNC1` [AZD7762] (10 nM) was tested. Which normalised response did it give?
A: The normalised response was 91%.

Q: How did the normalised response turn out when `CO[C@H]1/C=C\C=C(/C)C(=O)NC2=CC(=O)C(NCCN(C)C)=C(C[C@@H](C)C[C@H](OC)[C@H](O)[C@@H](C)/C=C(\C)[C@@H]1OC(N)=O)C2=O` [Alvespimycin] (10 nM) was run?
A: The normalised response was 89.8%.

system: CAL-120; experiment: as above; details: incubation time: 72 h
How it was run: as §1

Q: Which normalised response does the source give for `CC(C)Cn1cnc2c(N)nc3ccccc3c21` [Imiquimod] (25 nM) here?
A: Its normalised response is 96.9%.

Q: `Cc1ccc(C(=O)N(CCCN)[C@@H](c2oc3cc(Cl)ccc3c(=O)c2Cc2ccccc2)C(C)C)cc1` (1 nM) was tested. Which normalised response did it give?
A: The normalised response was 83.7%.

Q: How did the normalised response turn out when `Clc1ccc(Nc2nnc(Cc3ccncc3)c3ccccc23)cc1` [Vatalanib] (100 nM) was run?
A: Its normalised response is 102%.

Q: `Cc1ccc(C(=O)Nc2ccc(CN3CCN(C)CC3)c(C(F)(F)F)c2)cc1C#Cc1cnc2cccnn12` [Ponatinib] (10 nM) was tested. Which normalised response did it give?
A: Its normalised response is 102%.

Q: How did the normalised response turn out when `N.N.[Cl][Pt][Cl]` [Cisplatin] (10 nM) was run?
A: Its normalised response is 108%.

Q: `COc1cc([C@@H]2c3cc4c(cc3[C@@H](O[C@@H]3O[C@@H]5CO[C@@H](C)O[C@H]5[C@H](O)[C@H]3O)[C@H]3COC(=O)[C@H]23)OCO4)cc(OC)c1O` [Etoposide] (100 nM) was tested. Which normalised response did it give?
A: The normalised response was 106%.

Q: With `COc1cc2ncnc(Nc3ccc(F)c(Cl)c3)c2cc1NC(=O)/C=C/CN1CCCCC1` [Dacomitinib] (10 nM) as the molecule, how does the normalised response read?
A: The normalised response was 105%.

Q: How did the normalised response turn out when `NC(=O)Nc1cc(-c2cccc(F)c2)sc1C(=O)N[C@H]1CCCNC1` [AZD7762] (10 nM) was run?
A: The normalised response was 99.8%.

Q: How did the normalised response turn out when `CO[C@H]1/C=C\C=C(/C)C(=O)NC2=CC(=O)C(NCCN(C)C)=C(C[C@@H](C)C[C@H](OC)[C@H](O)[C@@H](C)/C=C(\C)[C@@H]1OC(N)=O)C2=O` [Alvespimycin] (10 nM) was run?
A: Its normalised response is 97.3%.

system: BT-474; experiment: as above; details: incubation time: 72 h
How it was run: as §1

Q: Which normalised response does the source give for `CC(C)Cn1cnc2c(N)nc3ccccc3c21` [Imiquimod] (25 nM) here?
A: The normalised response was 102%.

Q: `Cc1ccc(C(=O)N(CCCN)[C@@H](c2oc3cc(Cl)ccc3c(=O)c2Cc2ccccc2)C(C)C)cc1` (1 nM) was tested. Which normalised response did it give?
A: Its normalised response is 101%.

Q: How did the normalised response turn out when `Clc1ccc(Nc2nnc(Cc3ccncc3)c3ccccc23)cc1` [Vatalanib] (100 nM) was run?
A: Its normalised response is 99.6%.

Q: With `Cc1ccc(C(=O)Nc2ccc(CN3CCN(C)CC3)c(C(F)(F)F)c2)cc1C#Cc1cnc2cccnn12` [Ponatinib] (10 nM) as the molecule, how does the normalised response read?
A: Its normalised response is 100%.

Q: With `N.N.[Cl][Pt][Cl]` [Cisplatin] (10 nM) as the molecule, how does the normalised response read?
A: Its normalised response is 104%.

Q: For `COc1cc([C@@H]2c3cc4c(cc3[C@@H](O[C@@H]3O[C@@H]5CO[C@@H](C)O[C@H]5[C@H](O)[C@H]3O)[C@H]3COC(=O)[C@H]23)OCO4)cc(OC)c1O` [Etoposide] (100 nM), which normalised response is on record?
A: Its normalised response is 101%.

Q: How did the normalised response turn out when `COc1cc2ncnc(Nc3ccc(F)c(Cl)c3)c2cc1NC(=O)/C=C/CN1CCCCC1` [Dacomitinib] (10 nM) was run?
A: The normalised response was 98.8%.

Q: For `NC(=O)Nc1cc(-c2cccc(F)c2)sc1C(=O)N[C@H]1CCCNC1` [AZD7762] (10 nM), which normalised response is on record?
A: Its normalised response is 101%.

Q: With `CO[C@H]1/C=C\C=C(/C)C(=O)NC2=CC(=O)C(NCCN(C)C)=C(C[C@@H](C)C[C@H](OC)[C@H](O)[C@@H](C)/C=C(\C)[C@@H]1OC(N)=O)C2=O` [Alvespimycin] (10 nM) as the molecule, how does the normalised response read?
A: Its normalised response is 93.9%.

system: CAL-85-1; experiment: as above; details: incubation time: 72 h
How it was run: as §1

Q: How did the normalised response turn out when `CC(C)Cn1cnc2c(N)nc3ccccc3c21` [Imiquimod] (25 nM) was run?
A: Its normalised response is 98.1%.

Q: With `Cc1ccc(C(=O)N(CCCN)[C@@H](c2oc3cc(Cl)ccc3c(=O)c2Cc2ccccc2)C(C)C)cc1` (1 nM) as the molecule, how does the normalised response read?
A: Its normalised response is 113%.

Q: How did the normalised response turn out when `Clc1ccc(Nc2nnc(Cc3ccncc3)c3ccccc23)cc1` [Vatalanib] (100 nM) was run?
A: Its normalised response is 77.6%.

Q: With `Cc1ccc(C(=O)Nc2ccc(CN3CCN(C)CC3)c(C(F)(F)F)c2)cc1C#Cc1cnc2cccnn12` [Ponatinib] (10 nM) as the molecule, how does the normalised response read?
A: Its normalised response is 103%.

Q: For `N.N.[Cl][Pt][Cl]` [Cisplatin] (10 nM), which normalised response is on record?
A: Its normalised response is 112%.

Q: How did the normalised response turn out when `COc1cc([C@@H]2c3cc4c(cc3[C@@H](O[C@@H]3O[C@@H]5CO[C@@H](C)O[C@H]5[C@H](O)[C@H]3O)[C@H]3COC(=O)[C@H]23)OCO4)cc(OC)c1O` [Etoposide] (100 nM) was run?
A: The normalised response was 95.2%.

Q: `COc1cc2ncnc(Nc3ccc(F)c(Cl)c3)c2cc1NC(=O)/C=C/CN1CCCCC1` [Dacomitinib] (10 nM) was tested. Which normalised response did it give?
A: Its normalised response is 90.5%.

Q: Which normalised response does the source give for `NC(=O)Nc1cc(-c2cccc(F)c2)sc1C(=O)N[C@H]1CCCNC1` [AZD7762] (10 nM) here?
A: Its normalised response is 100%.

Q: How did the normalised response turn out when `CO[C@H]1/C=C\C=C(/C)C(=O)NC2=CC(=O)C(NCCN(C)C)=C(C[C@@H](C)C[C@H](OC)[C@H](O)[C@@H](C)/C=C(\C)[C@@H]1OC(N)=O)C2=O` [Alvespimycin] (10 nM) was run?
A: Its normalised response is 95.8%.

system: MDA-MB-468; experiment: as above; details: incubation time: 72 h
How it was run: as §1

Q: With `Cc1ccc(C(=O)Nc2ccc(CN3CCN(C)CC3)c(C(F)(F)F)c2)cc1C#Cc1cnc2cccnn12` [Ponatinib] (10 nM) as the molecule, how does the normalised response read?
A: The normalised response was 93.2%.

Q: Which normalised response does the source give for `COc1cc([C@@H]2c3cc4c(cc3[C@@H](O[C@@H]3O[C@@H]5CO[C@@H](C)O[C@H]5[C@H](O)[C@H]3O)[C@H]3COC(=O)[C@H]23)OCO4)cc(OC)c1O` [Etoposide] (100 nM) here?
A: The normalised response was 56.9%.

Q: For `COc1cc2ncnc(Nc3ccc(F)c(Cl)c3)c2cc1NC(=O)/C=C/CN1CCCCC1` [Dacomitinib] (10 nM), which normalised response is on record?
A: The normalised response was 68.7%.

Q: With `NC(=O)Nc1cc(-c2cccc(F)c2)sc1C(=O)N[C@H]1CCCNC1` [AZD7762] (10 nM) as the molecule, how does the normalised response read?
A: Its normalised response is 104%.

Q: Which normalised response does the source give for `CO[C@H]1/C=C\C=C(/C)C(=O)NC2=CC(=O)C(NCCN(C)C)=C(C[C@@H](C)C[C@H](OC)[C@H](O)[C@@H](C)/C=C(\C)[C@@H]1OC(N)=O)C2=O` [Alvespimycin] (10 nM) here?
A: Its normalised response is 116%.
